{
  "source": "patent US20260248722A1",
  "about": "“METHOD FOR CARTILAGE REGENERATION AND REGROWTH FOLLOWING INJURY” (ELUCIDERM INC., priority 2021, published 2026)",
  "key": {"[1]": {"test_system": "2 mm biopsy punch wound in the center of the cartilaginous region", "conditions": "XAV939 dissolved in DMSO; cited from earlier work"}, "CRE, F-κB, or TGF-β": {"test_system": "CRE, F-κB, or TGF-β", "conditions": "cited from earlier work"}, "ear punch wound": {"test_system": "ear punch wound", "conditions": "topical application, dissolved in DMSO; cited from earlier work"}, "[2]": {"test_system": "2 mm biopsy punch wound in the center of the cartilaginous region of each ear", "assay": "Cartilage regrowth in mouse ears after 2 mm biopsy punch wound (Example 2)", "format": "in vivo, C57Bl/6J mice", "conditions": "XAV939 in DMSO every day for 30 days", "source_text": "C57Bl/6J mice were purchased from The Jackson Laboratory (Bar Harbor, ME, USA) and maintained by PPY. C57Bl/6J mice (at least 3 months of age) were anesthetized with 3-5% isoflurane in O2 administered using Tabletop Laboratory Animal Anesthesia System (VetEquip Inc., Pleasanton, CA, USA). A 2 mm biopsy punch wound was made in the center of the cartilaginous region of each ear using a disposable biopsy punch (Acuderm Inc., Fort Lauderdale, FL, USA) as described previously (Rai, M. F. et al, 2021, Arthritis Rheum., 64:2300-2310). […] In order to quantify closure of the wounds, ears were excised following mouse sacrifice, fixed and placed on microscope slides for examination by way of the digital camera being affixed to a Micromaster Inverted microscope (Thermo Fisher Scientific, Waltham, MA, USA). […] Sections of the tissue were then stained with Trichome blues, imaged and analyzed by way of an Olympus DP71 microscope camera (Olympus America, Center Valley, PA, USA). […] For quantification of wound closure, ears were excised after the mice were sacrificed, placed on microscope slides (Denville Scientific, South Plainfield, NJ, USA) and imaged using Nikon Coolpix 8700 affixed to Micromaster Inverted microscope (Thermo Fisher Scientific, Waltham, MA, USA). […]"}, "[3]": {"conditions": "cited from earlier work"}},
  "data": [
    {"smiles": "Oc1nc(-c2ccc(C(F)(F)F)cc2)nc2c1CSCC2", "note": "[XAV939, 3,5,7,8-Tetrahydro-2-[4-(trifluoromethyl)phenyl]-4H-thiopyrano[4,3-d]pyrimidin-4-one]", "values": [
      {"measurement": "cartilage regeneration and healing following acute injury", "setting": "[1]", "result": "increased cartilage regeneration and healing"},
      {"measurement": "effect on CRE, F-κB, or TGF-β", "setting": "CRE, F-κB, or TGF-β", "result": "does not affect"},
      {"measurement": "fibrosis (scarring)", "setting": "ear punch wound", "result": "reduced fibrosis"},
      {"measurement": "rate of wound closure", "setting": "ear punch wound", "result": "significantly increased"},
      {"measurement": "nature and character of the cartilage regrowth in the wounds, compared to DMSO control", "setting": "[2]", "result": "improved"},
      {"measurement": "aqueous solubility", "setting": "[3]", "result": "< 1", "unit": "µg/mL"}
    ]}
  ]
}
